{
  "source": "patent US20240245677A1",
  "about": "“SELECTED COMPOUNDS FOR TARGETED DEGRADATION OF BRD9” (C4 THERAPEUTICS, INC., priority 2021, published 2024)",
  "key": {"[1]": {"assay": "HepG2 in vitro viability assay (CellTiter-Glo, 72 hours)", "format": "cell-based, human", "conditions": "human, HepG2 cells, 72-hour treatment", "experimental": "This assay assessed the general cytotoxicity of Compound 1 using the human hepatocarcinoma cell line HepG2. HepG2 cells were treated with Compound 1 for 72 hours and cellular viability was measured following the addition of CellTiter-Glo® 2.0 reagent (Promega) according to manufacturer's instructions. Agents were solubilized in DMSO and tested in the HepG2 cell line at concentrations ranging from 0.3 nM to 10 μM.\nHepG2 cells were obtained from ATCC (Catalog No. HB-8065, Manassas, VA, USA) and maintained in MEM medium (Catalog No. 11095080, ThermoFisher Scientific, Waltham, MA, USA) supplemented with 10% heat inactivated fetal bovine serum (FBS) (Catalog No. 16000-044, Gibco, Grand Island, NY, USA) at 37° C. in an atmosphere of 5% CO2 in air. The cells were routinely sub-cultured to maintain cell density between 3×10^5-1.5×10^6 cells/mL, not to exceed 20 passages. Cells were washed with PBS, trypsinized for 5 min at 37° C., and resuspended in growth media. An aliquot was diluted 2× with Trypan Blue solution 0.4% (Catalog No. 15250061, ThermoFisher Scientific, Waltham, MA, USA) and cell count was determined. Cell concentration was adjusted with growth media to 1.0×10^4 cells/mL.\nCompound 1 was prepared by dissolving neat compound in DMSO (Catalog No. D8418, Sigma-Aldrich, Inc., St. Louis, MO, USA) to generate 10 mM stock solution and stored at −20° C. 10 mM DMSO stock solution of Compound 1 was serially diluted (half log) in DMSO to generate 10-point dose series ([…]) in acoustic ready 384-well low dead volume microplates (Catalog No. LP-0200, Beckman Coulter Life Sciences, Indianapolis, IN, USA). Using an Echo 550 Acoustic Liquid Handler Handler (Beckman Coulter Life Sciences, Indianapolis, IN, USA), 50 nL of serially diluted compound solutions were dispensed directly in quadruplicate to each 384-well black TC-treated microplate (Catalog No. 3571, Corning, Glendale, CA, USA). 50 nL DMSO was transferred to all control wells.\n50 μL HepG2 cells suspended in growth media at 1.0×10^4 cells/mL (500 cells/well) were dispensed using a Multidrop Combi Reagent Dispenser (Catalog No. 5840300, ThermoFisher Scientific, Waltham, MA, USA) to each well of 384-well black TC-treated microplates containing quadruplicate concentration range of test compound and DMSO controls. Plates were incubated at 37° C., 5% CO2 for 72 hours. Final concentration of DMSO was 0.1% for all samples.\nAdditional cell plates (TO plates) were prepared by dispensing cells into a blank 384-well black TC-treated microplate to represent cytostatic controls and processed for viability detection immediately after cell dispensing.\nHepG2 cell viability was determined based on quantification of ATP using CellTiter-Glo® 2.0 luminescent assay kit (Catalog No. G9243, Promega, Madison, WI, USA), which signals the presence of metabolically active cells. On Day 0 (Time 0) and Day 3 (72 hours) 25 μL CellTiter-Glo® reagent was added to each well of cell plates except the wells in column 24 and the luminescence was measured after 4 hours incubation at room temperature using an EnVision® Multilabel Reader (Catalog No. 2104-0010, Perkin Elmer Inc., Dumfries, VA, USA). Column 24 (cells without CellTiter-Glo® addition) was used as plate background or positive control (P).\nCytostatic control value (CT0) was computed from TO plate read using untreated cell signals (UT=0) and positive control signals (PT=0) as below.\nPercent response of compound-treated samples at a time point T were calculated by normalizing the signal with P and DMSO treated negative (N) controls on the same microtiter plate and the CT0 control:\nThe Response % is thus 100% if the CellTiter-Glo® signal equals that of the DMSO treated controls (i.e., normal cell growth), 0% if it equals that of untreated cell at TO (i.e., cytostasis), and −100% if it equals the no CellTiter-Glo® reagent controls (i.e., complete cytotoxicity). […]"}, "SALL4": {"biological_target": "T1, SALL4 (Homo sapiens, UniProt Q96SW2+Q9UJQ4)", "T1 construct": "CRISPR-edited to endogenously express HiBiT tagged SALL4; host or cells: KELLY.2", "T1 sequence (Q9UJQ4 whole entry)": "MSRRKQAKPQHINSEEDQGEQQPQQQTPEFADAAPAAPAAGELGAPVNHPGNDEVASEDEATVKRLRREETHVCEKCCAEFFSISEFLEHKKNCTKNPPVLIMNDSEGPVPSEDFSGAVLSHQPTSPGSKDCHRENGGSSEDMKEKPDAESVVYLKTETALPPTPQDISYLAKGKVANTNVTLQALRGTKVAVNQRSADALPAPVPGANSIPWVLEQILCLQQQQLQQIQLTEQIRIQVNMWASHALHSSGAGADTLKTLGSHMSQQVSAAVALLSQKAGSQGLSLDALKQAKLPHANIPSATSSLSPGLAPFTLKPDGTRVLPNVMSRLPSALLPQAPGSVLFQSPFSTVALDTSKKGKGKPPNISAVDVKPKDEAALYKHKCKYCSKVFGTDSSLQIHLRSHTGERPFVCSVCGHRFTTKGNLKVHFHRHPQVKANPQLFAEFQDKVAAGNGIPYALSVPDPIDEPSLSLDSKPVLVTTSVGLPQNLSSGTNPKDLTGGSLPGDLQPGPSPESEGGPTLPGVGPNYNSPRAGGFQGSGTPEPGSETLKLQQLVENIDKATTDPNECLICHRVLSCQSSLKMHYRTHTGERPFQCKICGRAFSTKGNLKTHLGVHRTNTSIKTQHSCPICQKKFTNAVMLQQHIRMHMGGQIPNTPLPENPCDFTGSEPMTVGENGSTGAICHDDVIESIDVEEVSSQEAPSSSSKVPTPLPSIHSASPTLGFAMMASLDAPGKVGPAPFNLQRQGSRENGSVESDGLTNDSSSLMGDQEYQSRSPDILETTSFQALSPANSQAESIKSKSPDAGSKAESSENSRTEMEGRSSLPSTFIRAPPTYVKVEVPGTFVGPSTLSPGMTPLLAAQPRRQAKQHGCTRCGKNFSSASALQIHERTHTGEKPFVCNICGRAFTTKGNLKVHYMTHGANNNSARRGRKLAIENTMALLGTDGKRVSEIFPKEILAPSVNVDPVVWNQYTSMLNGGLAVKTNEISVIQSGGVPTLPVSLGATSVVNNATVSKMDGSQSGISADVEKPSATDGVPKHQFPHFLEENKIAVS", "T1 sequence (Q96SW2 whole entry)": "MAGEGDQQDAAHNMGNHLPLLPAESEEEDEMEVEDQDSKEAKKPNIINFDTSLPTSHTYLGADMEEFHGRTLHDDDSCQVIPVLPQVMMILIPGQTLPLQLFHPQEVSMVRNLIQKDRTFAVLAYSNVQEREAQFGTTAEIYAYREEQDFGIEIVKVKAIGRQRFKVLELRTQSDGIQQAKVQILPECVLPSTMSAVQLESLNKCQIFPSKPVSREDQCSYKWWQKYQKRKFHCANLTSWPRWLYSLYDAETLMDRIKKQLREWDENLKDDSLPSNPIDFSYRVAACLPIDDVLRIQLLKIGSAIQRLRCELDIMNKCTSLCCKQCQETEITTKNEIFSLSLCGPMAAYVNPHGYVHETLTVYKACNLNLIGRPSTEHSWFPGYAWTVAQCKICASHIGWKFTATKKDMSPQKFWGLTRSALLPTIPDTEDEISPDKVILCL", "T1 sequence (Q16531 2-1140 partner limits assumed)": "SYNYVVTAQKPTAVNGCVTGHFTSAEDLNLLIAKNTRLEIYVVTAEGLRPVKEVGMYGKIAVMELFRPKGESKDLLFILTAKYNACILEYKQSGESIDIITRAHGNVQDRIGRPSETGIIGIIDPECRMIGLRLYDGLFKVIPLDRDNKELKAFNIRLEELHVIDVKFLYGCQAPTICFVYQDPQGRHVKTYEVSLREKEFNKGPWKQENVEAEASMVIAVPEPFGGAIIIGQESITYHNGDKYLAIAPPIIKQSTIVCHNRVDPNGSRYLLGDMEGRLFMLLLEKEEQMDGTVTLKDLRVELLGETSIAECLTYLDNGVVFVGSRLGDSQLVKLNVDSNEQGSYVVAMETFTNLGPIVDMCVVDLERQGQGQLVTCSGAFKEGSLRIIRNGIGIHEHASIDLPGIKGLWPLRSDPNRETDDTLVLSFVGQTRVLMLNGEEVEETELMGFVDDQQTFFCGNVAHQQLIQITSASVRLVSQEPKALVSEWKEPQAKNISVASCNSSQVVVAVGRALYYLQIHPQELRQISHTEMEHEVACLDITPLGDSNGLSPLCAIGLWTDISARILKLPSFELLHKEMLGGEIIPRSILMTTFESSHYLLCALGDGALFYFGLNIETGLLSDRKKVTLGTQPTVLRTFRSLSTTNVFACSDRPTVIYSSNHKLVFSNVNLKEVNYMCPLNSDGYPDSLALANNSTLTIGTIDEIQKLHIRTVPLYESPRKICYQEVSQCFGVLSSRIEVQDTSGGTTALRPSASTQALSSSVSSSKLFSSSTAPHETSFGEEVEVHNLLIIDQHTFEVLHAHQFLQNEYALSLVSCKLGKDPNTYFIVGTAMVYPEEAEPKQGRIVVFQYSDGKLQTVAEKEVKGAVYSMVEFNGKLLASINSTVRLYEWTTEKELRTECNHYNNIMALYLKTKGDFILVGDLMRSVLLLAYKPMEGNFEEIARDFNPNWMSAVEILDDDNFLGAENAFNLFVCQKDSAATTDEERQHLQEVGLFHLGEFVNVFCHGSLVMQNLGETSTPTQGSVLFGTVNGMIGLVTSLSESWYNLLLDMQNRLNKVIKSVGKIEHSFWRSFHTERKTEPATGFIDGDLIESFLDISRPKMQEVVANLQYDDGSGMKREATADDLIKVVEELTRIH", "assay": "SALL4 HiBiT degradation assay in KELLY.2 cells", "format": "cell-based", "from_the_text": "Nano-Glo® HiBiT Lytic Assay System was purchased from Promega (Catalog No. N3050, Madison, WI, USA). […] The HiBiT polypeptide tag was introduced into the C-terminus of the endogenous SALL4 locus by CRISPR-Cas9 to produce the modified KELLY.2 cell line. The HiBiT polypeptide allows reconstitution of NanoBiT enzyme following cell lysis and addition of the complementing LgBiT polypeptide that activates substrate to produce a luminescent signal that is directly proportional to the amount of HiBiT-tagged SALL4.\nKELLY.2 cells were routinely sub-cultured to maintain cell density between 30-80% confluence, not to exceed 10 passages. Cells were washed with PBS, trypsinized for 5 minutes at 37° C., and resuspended in fresh growth media without phenol red. […] Cell concentration was adjusted with growth media without phenol red to 2×10^5 cells/mL.\n30 nL DMSO was transferred to all control wells.\n30 μL of media was dispensed to column 24 as background positive control (P). Plates were spun briefly at 1000 rpm and cells were incubated at 37° C., 5% CO2 for 6 hours. Final concentration of DMSO was 0.1% for all samples.\nCellular SALL4 protein level was determined based on quantification of HiBiT using Nano-Glo® HiBiT Lytic Assay System (Promega). […] Cells treated in the absence of the test compound (0.1% DMSO vehicle) were the negative control (N) and wells containing only media were the positive control (P).\nPercent response of compound-treated samples (T) were calculated by normalizing to the DMSO treated negative (N) controls on the same microtiter plate after background (i.e., positive control) signal subtraction:\nCurve fit and DC50 (concentration that degrades 50% SALL4) determination was performed by 4 parametric logistic fit analysis using software such as GraphPad Prism software (GraphPad Software, LLC, San Diego, CA, USA). The fit was performed through minimization of the root mean squared error between observed and calculated values of the four-parameter logistic equation using the simplex optimizer of the Apache Commons Math library. […] DC50 values were computed as the concentrations where the fitted curves cross the 50% response level. Averages and standard deviations were computed from replicates of the experiment."}},
  "data": [
    {"smiles": "COc1cc(-c2cn(C)c(=O)c(C)c2C)cc(OC)c1CN1CC[C@H](N2CCN(c3ccc(N[C@H]4CCC(=O)NC4=O)cc3F)CC2)C(F)(F)C1", "note": "[Compound 1, (S)-3-((4-(4-((S)-1-(2,6-dimethoxy-4-(1,4,5-trimethyl-6-oxo-1,6-dihydropyridin-3-yl)benzyl)-3,3-difluoropiperidin-4-yl)piperazin-1-yl)-3-fluorophenyl)amino)-piperidine-2,6-dione]", "values": [
      {"measurement": "viability at 72 h, 0.00032 µM", "setting": "[1]; 0.32 nM", "value": 111, "unit": "%"},
      {"measurement": "viability at 72 h, 0.00101 µM", "setting": "[1]; 1.01 nM", "value": 102, "unit": "%"},
      {"measurement": "viability at 72 h, 0.00317 µM", "setting": "[1]; 3.17 nM", "value": 97.7, "unit": "%"},
      {"measurement": "viability at 72 h, 0.01 µM", "setting": "[1]; 10.0 nM", "value": 91.6, "unit": "%"},
      {"measurement": "viability at 72 h, 0.0317 µM", "setting": "[1]; 31.7 nM", "value": 97.4, "unit": "%"},
      {"measurement": "viability at 72 h, 0.1 µM", "setting": "[1]; 100 nM", "value": 92.5, "unit": "%"},
      {"measurement": "viability at 72 h, 0.317 µM", "setting": "[1]; 317 nM", "value": 102, "unit": "%"},
      {"measurement": "viability at 72 h, 1 µM", "setting": "[1]; 1000 nM", "value": 79, "unit": "%"},
      {"measurement": "viability at 72 h, 3.161 µM", "setting": "[1]; 3161 nM", "value": 84.6, "unit": "%"},
      {"measurement": "viability at 72 h, 9.99 µM", "setting": "[1]; 9990 nM", "value": 66.6, "unit": "%"},
      {"measurement": "% SALL4 Remaining Relative to Vehicle Control at 6 hr, Mean", "setting": "SALL4; 0.101 nM", "value": 103.8, "unit": "%"},
      {"measurement": "% SALL4 Remaining Relative to Vehicle Control at 6 hr, Mean", "setting": "SALL4; 0.318 nM", "value": 104.1, "unit": "%"},
      {"measurement": "% SALL4 Remaining Relative to Vehicle Control at 6 hr, Mean", "setting": "SALL4; 1.01 nM", "value": 104.1, "unit": "%"},
      {"measurement": "% SALL4 Remaining Relative to Vehicle Control at 6 hr, Mean", "setting": "SALL4; 3.17 nM", "value": 103.7, "unit": "%"},
      {"measurement": "% SALL4 Remaining Relative to Vehicle Control at 6 hr, Mean", "setting": "SALL4; 10.0 nM", "value": 106.5, "unit": "%"},
      {"measurement": "% SALL4 Remaining Relative to Vehicle Control at 6 hr, Mean", "setting": "SALL4; 31.7 nM", "value": 106.1, "unit": "%"},
      {"measurement": "% SALL4 Remaining Relative to Vehicle Control at 6 hr, Mean", "setting": "SALL4; 100 nM", "value": 104.2, "unit": "%"},
      {"measurement": "% SALL4 Remaining Relative to Vehicle Control at 6 hr, Mean", "setting": "SALL4; 317 nM", "value": 105.0, "unit": "%"},
      {"measurement": "% SALL4 Remaining Relative to Vehicle Control at 6 hr, Mean", "setting": "SALL4; 1000 nM", "value": 104.0, "unit": "%"},
      {"measurement": "% SALL4 Remaining Relative to Vehicle Control at 6 hr, Mean", "setting": "SALL4; 3161 nM", "value": 104.4, "unit": "%"},
      {"measurement": "% SALL4 Remaining Relative to Vehicle Control at 6 hr, Mean", "setting": "SALL4; 9990 nM", "value": 96.6, "unit": "%"},
      {"measurement": "Emax", "setting": "SALL4; SALL4-HiBiT, KELLY.2 cells, 6 hours, read-out: Mean Emax (%) ± SD", "value": "98.9 ± 2.1", "unit": "%"},
      {"measurement": "effect on degradation of SALL4", "setting": "SALL4; concentrations up to 10 μM, 6 hours", "value": "no significant effect"}
    ]}
  ]
}
